What was measured:
[1] = target: T1, KRAS G12C/SOS/c-Raf complex (Homo sapiens, UniProt P01116, G12C); experiment: KRAS G12C/SOS/c-Raf complex formation inhibitory action (TR-FRET); assay type: biochemical; details: one hour at room temperature, read-out: IC50 (KRAS G12C/SOS/c-Raf complex formation inhibition)
T1 construct: Biotinylated AviTag-KRAS G12C (amino acid region 1-185, GDP)
Summary of the method: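 Biotin-AviTag KRAS G12C (1-185, GDP-bound) was mixed with compound (4,000 to 4 nM stock dilutions), SOS (564-1049), GST-c-Raf (51-131) and GTP in pH 7.4 HEPES/NaCl/MgCl2/Tween buffer for 1 h at room temperature. Complex formation was read by TR-FRET with Eu-streptavidin and ULight-anti-GST (ex 337 nm, em 620/665 nm).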

pERK in NCI-H1373 tumor = experiment: Intratumoral pERK inhibitory action in NCI-H1373 tumor of nude mice (TR-FRET); assay type: in vivo, mouse; details: Mus musculus, 6 h, tumor six hours after administration
Experimental: Evaluation of Intratumoral pERK Inhibitory Action
The phosphorylation amount of ERK in tumor sample after administration of test compound was examined by using pERK measurement kit (Advanced ERK phospho-T202/Y204 kit, Cisbio co., Ltd) through a TR-FRET method.
2.0 to 5.0×10^6 NCI-H1373 cells were prepared by using a solution in which an equivalent amount of Matrigel (Becton. Dickinson and Company) was added to PBS, were injected subcutaneously in a volume of 100 μL and planted to male nude mice of 4-5 weeks old (CAnN.Cg-Foxn 1 nu/CrlCrlj (nu/nu), Charles River Laboratories Japan, Inc.), and then the male nude mice were used for the test 15 to 26 days later. The test was conducted with three mice in a solvent group and three mice in a test compound administration group, and the test compounds were prepared by using a solvent such that the dosage thereof is as indicated in Table 4. The test compound was administered subcutaneously or orally. For subcutaneous administration, physiological saline supplemented with equimolar hydrochloric acid was used as a solvent. For oral administration, 6% 2-hydroxypropyl-β-cyclodextrin (Sigma-Aldrich Co. LLC) was used as a solvent. Six hours after the administration, a tumor was excised from a cervical dislocated mouse under isoflurane anesthesia, and a part thereof was put into a 2 mL Eppendorf tube and frozen using liquid nitrogen. The tumor sample was stored in a deep freezer at −80° C. until it was subjected to the pERK measurement test.
500 μL of lysis buffer 1 (Phospholysis buffer [Cisbio Co., Ltd], Complete EDTA free [Roche Diagnostics K.K.], Phosphatase inhibitor cocktail 2 [Sigma-Aldrich Co. LLC]) and one bead (5 mm YTZ ball [Nikkato Corp.]) was added to the tumor sample, and crushed (frequency 25/s for 3 minutes) by using Tissue Lyser II (QIAGEN GmbH). The whole amount was transferred to a new tube and centrifuged (20,400×g for 10 minutes, 4° C.) by using a micro amount high speed cooling centrifuge so as to obtain a tumor lysate which is a supernatant. Protein quantification of tumor lysate was performed by using a protein quantification kit (Pierce 660 nm Protein Assay Kit [Thermo Fisher Scientific Inc.]), and each sample was diluted by using lysis buffer 2 (Phosphorysis buffer [Cisbio Co., Ltd], Blocking Agent [attached to pERK measurement kit]) such that the amount thereof is to be a final concentration of 0.5 μg/μL.
Each of p-ERK1/2 Cryptate antibody and p-ERK1/2 d2 antibody (attached to pERK measurement kit) was diluted 20-fold with each detection buffer (attached to pERK measurement kit), and thereby a mixed solution of these two types of antibodies was prepared. A mixed solution of antibody was added to a 384 well plate at a volume of 4 μL/well. Further, tumor lysate diluted to 0.5 μg/μL was added at a volume of 16 μL/well. After standing at room temperature in a wet box for about 17 hours, the fluorescence intensity at 620 nm and 665 nm was measured under the condition of excitation wavelength of 337 nm by using EnVision 2103 Multilabel Reader (PerkinElmer Co., Ltd.).

NCI-H1373 cells = experiment: Anchorage-independent cell proliferation inhibitory action, NCI-H1373 spheroid three-dimensional culture; assay type: cell-based, Human; details: Homo sapiens, NCI-H1373, 144 h, NCI-H1373 spheroid, six days, CellTiter Glo; read-out: IC50 (anchorage-independent cell proliferation inhibition)
Summary of the method: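 KRAS G12C NCI-H1373 cells were grown as spheroids in low-attachment U-bottom wells and treated the next day with compound, six points from 1,000 to 0.3 nM final. After six days at 37°C, viability was read by CellTiter-Glo luminescence. IC50 was fitted by Sigmoid-Emax regression, with DMSO set as 0% and cell-free medium as 100% inhibition.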

[2] = system: ERK phosphorylation (Thr 202/Tyr 204) in NCI-H1373 cells; experiment: ERK phosphorylation inhibitory action in NCI-H1373 (Cell ELISA); assay type: cell-based, Human; details: Homo sapiens, NCI-H1373, 2 h, NCI-H1373 cells, cultured for 2 hours, 100% = 1 μM Trametinib; read-out: IC50 (ERK phosphorylation inhibition)
Summary of the method: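 KRAS G12C NCI-H1373 cells (2×10^4/well) were treated with compound (six points, 1,000–0.3 nM final) for 2 h. Phospho-ERK Thr202/Tyr204 was measured by in-cell ELISA with an IRDye 800CW secondary antibody. IC50 was fitted by sigmoid-Emax regression against DMSO (0%) and 1 μM trametinib (100%).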

T1 sequence (P01116 1-185 isoform P01116-2 G12C, one chain of several): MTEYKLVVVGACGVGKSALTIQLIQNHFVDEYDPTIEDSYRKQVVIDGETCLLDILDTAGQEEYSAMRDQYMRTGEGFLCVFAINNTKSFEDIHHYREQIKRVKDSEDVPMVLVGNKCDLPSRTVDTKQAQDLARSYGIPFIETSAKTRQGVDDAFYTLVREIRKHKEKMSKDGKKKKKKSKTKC

IC50 [1]	IC50 (NCI-H1373 cells)	IC50 [2]	SMILES	inhibition at 3 mg/kg (pERK in NCI-H1373 tumor; NCI-H1373, sc, Subcutaneous administration, 3 mg/kg, read-out: pERK inhibition (%))	inhibition at 10 mg/kg (pERK in NCI-H1373 tumor; NCI-H1373, po, Oral administration, 10 mg/kg)
31 nM	–	–	C=CC(=O)N1CC2(CCN(c3nc(OC4CCN(C)CC4)nc4c(OCC)c(-c5c(C)ccc6[nH]ncc56)c(C=C)cc34)CC2)C1 [Ex 5]	72%	–
45 nM	8.3 nM	–	C=CC(=O)N1CC2(CCN(c3nc(OC4CCN(CC(C)(C)O)CC4)nc4c(OCC(F)(F)F)c(-c5c(C)ccc6[nH]ncc56)c(C=C)cc34)CC2)C1 [Ex 31]	–	51%
72 nM	37 nM	12 nM	C=CC(=O)N1CC2(CCN(c3nc(OC4CCN(S(C)(=O)=O)CC4)nc4c(OCC(F)(F)F)c(-c5c(C)ccc6[nH]ncc56)c(C=C)cc34)CC2)C1 [Example 86]	–	–
39 nM	35 nM	18 nM	C=CC(=O)N1CC2(CCN(c3nc(OC4CCN(CCOC)CC4)nc4c(OCC(F)(F)F)c(-c5cccc6[nH]ncc56)c(C5CC5)cc34)CC2)C1 [Example 87]	–	–
148 nM	90 nM	19 nM	C=CC(=O)N1CC2(CCN(c3nc(OC4CCN(C(=O)OC)CC4)nc4c(OCC(F)(F)F)c(-c5c(C)ccc6[nH]ncc56)c(C=C)cc34)CC2)C1 [Example 88]	–	–
53 nM	40 nM	19 nM	C=CC(=O)N1CC2(CCN(c3nc(N4CCN(C)C(CC)C4)nc4c(OCC(F)(F)F)c(-c5c(C)ccc6[nH]ncc56)c(C=C)cc34)CC2)C1 (centres unmarked) [Example 89]	–	–
55 nM	53 nM	22 nM	C=CC(=O)N1CC2(CCN(c3nc(OC4CCN(C(C)=O)CC4)nc4c(OCC(F)(F)F)c(-c5c(C)ccc6[nH]ncc56)c(C=C)cc34)CC2)C1 [Example 90]	–	–
42 nM	39 nM	22 nM	C=CC(=O)N1CC2(CCN(c3nc(CC4CCN(CCOC)CC4)nc4c(OCC(F)(F)F)c(-c5c(C)ccc6[nH]ncc56)c(C=C)cc34)CC2)C1 [Example 91]	–	–
37 nM	32 nM	22 nM	C=CC(=O)N1CC2(CCN(c3nc(OC4CCN(CC)CC4)nc4c(OC)c(-c5c(Cl)ccc6[nH]ncc56)c(C=C)cc34)CC2)C1 [Reference example 1, reference compound]	–	–
35 nM	22 nM	17 nM	C=CC(=O)N1CC2(CCN(c3nc(OC[C@@H]4CCCN4C)nc4c(OC)c(-c5c(C)ccc6[nH]ncc56)c(C=C)cc34)CC2)C1 [Reference example 2, reference compound]	–	–
